Holding throughout (assay type): binding
Experiment [1] addresses T1, CYP125 (Rv3545c, CYP125A1) (Mycobacterium tuberculosis, UniProt P9WPP1).
T1 sequence (P9WPP1 1-433): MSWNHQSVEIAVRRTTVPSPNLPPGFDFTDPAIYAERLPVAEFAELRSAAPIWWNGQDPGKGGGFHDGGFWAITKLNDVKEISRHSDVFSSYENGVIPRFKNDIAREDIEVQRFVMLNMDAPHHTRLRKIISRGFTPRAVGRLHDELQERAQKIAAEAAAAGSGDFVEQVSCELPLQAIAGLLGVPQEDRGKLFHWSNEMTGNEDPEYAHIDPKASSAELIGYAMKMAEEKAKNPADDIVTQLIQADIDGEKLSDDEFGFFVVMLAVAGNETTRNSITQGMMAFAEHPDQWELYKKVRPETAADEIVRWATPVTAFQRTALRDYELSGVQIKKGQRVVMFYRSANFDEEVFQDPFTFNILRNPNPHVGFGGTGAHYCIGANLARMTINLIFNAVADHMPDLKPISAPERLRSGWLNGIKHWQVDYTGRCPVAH
The experiment is described as follows: biochemical.

Experiment [2] deals with CYP142 (Rv3518c, CYP142A1) (Mycobacterium tuberculosis, UniProt P9WPL5). The experiment can be described thus: biochemical.
For experiment [3], the target named is T2, CYP124 (Rv2266, CYP124A1) (Mycobacterium tuberculosis, UniProt P9WPP3).
T2 sequence (P9WPP3 1-428): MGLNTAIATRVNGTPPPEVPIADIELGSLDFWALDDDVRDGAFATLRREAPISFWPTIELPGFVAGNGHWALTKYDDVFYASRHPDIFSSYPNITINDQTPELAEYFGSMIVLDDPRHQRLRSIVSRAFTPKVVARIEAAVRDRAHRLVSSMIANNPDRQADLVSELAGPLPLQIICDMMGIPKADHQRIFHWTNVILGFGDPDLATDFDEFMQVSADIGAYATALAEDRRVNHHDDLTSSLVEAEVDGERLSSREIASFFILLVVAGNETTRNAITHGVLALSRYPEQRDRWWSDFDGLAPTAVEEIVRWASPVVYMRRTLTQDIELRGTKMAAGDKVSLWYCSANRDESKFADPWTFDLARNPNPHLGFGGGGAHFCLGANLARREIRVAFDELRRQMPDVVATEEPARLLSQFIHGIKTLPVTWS
The experiment can be described thus: […] Å co-crystal structure; […]; LC-MS turnover.

Chain of CYP142 (Rv3518c, CYP142A1) (P9WPL5 whole entry): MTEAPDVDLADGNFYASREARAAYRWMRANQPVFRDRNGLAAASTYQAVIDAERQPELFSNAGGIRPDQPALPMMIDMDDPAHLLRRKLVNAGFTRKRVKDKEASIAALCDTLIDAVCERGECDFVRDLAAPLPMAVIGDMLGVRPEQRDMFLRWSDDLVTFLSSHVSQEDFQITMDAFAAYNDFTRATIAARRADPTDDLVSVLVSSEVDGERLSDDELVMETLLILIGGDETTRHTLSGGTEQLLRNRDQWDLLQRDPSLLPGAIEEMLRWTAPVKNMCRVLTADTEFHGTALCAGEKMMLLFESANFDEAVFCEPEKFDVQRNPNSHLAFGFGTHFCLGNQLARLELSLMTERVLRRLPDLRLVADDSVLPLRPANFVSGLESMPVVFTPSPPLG

The term Kd denotes the concentration at which binding is half-saturated. A higher Kd goes with a looser complex. As for `CC(C)=CCC/C(C)=C\CNCCNC1C2CC3CC(C2)CC1C3` (stereo not drawn) [SQ109], the dissociation constant (Kd) in experiment [1] was determined as 41 ± 3 µM; in experiment [2], 52 ± 11 µM; in experiment [3], 3.4 ± 0.3 µM.

Source of the values: PMC7589583, “Hydroxylation of Antitubercular Drug Candidate, SQ109, by Mycobacterial Cytochrome P450” (International Journal of Molecular Sciences, 2020).
